Data taken from patent publication US10526370B2, “Pentapeptide associated with integrin receptor alpha vbeta3” (priority 2015, dated 2020).
“Also recorded” adds a separate entry of the source. Read-outs that look alike come from different tables or passages of the source. Where a SMILES comes first, the peptide text is derived from it. [ ]: non-standard residue; d: D form.

How the values were obtained:
U87MG cells [1] = test: In vitro cell affinity test (flow cytometry); assay type: cell-based, human; conditions: rhodamine-labeled peptides, FIG. 1
Description: The human malignant glioma cells (U87MG) and the human breast cancer cells (MDA-MB-231) were cultured in a 6-well plate for 12 hours. Then, 100 μL of a polypeptide fluorescent probe labeled with rhodamine B (final concentration 250 μM) was added and co-incubated for 2 hours with gently shaking on a shaker at 37° C. Next, the cells were digested with 0.05% trypsin and washed off from the 6-wells plate. The cells were re-suspended in 1 mL PBS buffer (pH 7.2), and centrifuged (3500 r, 5 min). The supernatant was aspirated and discarded. The pellet was washed twice with a PBS buffer (pH7.2). After washing, the cells were re-suspended in a PBS buffer (pH 7.2). The mean fluorescence intensity (MFI) of the cells was quantified by using a flow cytometer. The higher the fluorescence intensity is, the greater the affinity for the cells will be. When the probe has a high affinity for the receptor on the cells, the cells have a high value of MFI measured by the flow cytometer. […] The dye used as a blank has a MFI of 25.

MCF-7 cells = test: In vitro cellular uptake assay (laser confocal microscopy); assay type: cell-based, human; conditions: MCF-7, 500 μmol/L, 2-hour incubation at 37° C., FIG. 4
Description: (§1) The cultured human glioma cells U87MG, human breast cancer cells MDA-MB-231, human breast cancer cells MCF-7 and normal liver cells L02 were transferred to a confocal dish respectively, and incubated overnight. Then, the rhodamine B-labeled pentapeptide was added at the same concentration (500 μmol/L). The cyclic RGD labeled with the rhodamine B is added and used as a positive control. After 2-hour incubation at 37° C., the cells were stained with 12 μg/mL of the nuclear staining reagent Hochest 33342. Finally, the intracellular uptake of the probe was observed under a laser confocal microscope.

MDA-MB-231 cells = test: as above; assay type: cell-based, human; conditions: MDA-MB-231, 500 μmol/L, 2-hour incubation at 37° C., FIG. 3
Description: as §1

U87MG cells [2] = test: as above; assay type: cell-based, human; conditions: 500 μmol/L, 2-hour incubation at 37° C., FIG. 3
Description: as §1

L02 cells = test: as above; assay type: cell-based; conditions: L02, 500 μmol/L, 2-hour incubation at 37° C., FIG. 4
Description: as §1

[3] = In vitro cellular cytotoxicity assay; assay type: cell-based; conditions: human
Description: When the U87MG cells, MCF-7 cells and normal liver cells L02 were grown to 90% confluent or higher, the cells were digested with 0.25% trypsin and then suspended in a complete growth medium to obtain a single cell suspension. The cells were plated at a density of 3000 cells/well in a 96-well plate, and cultured at 37° C. in an incubator containing 5% CO2. After 24-hour incubation, the medium was changed to a low-serum culture medium supplemented with 1% FBS. Then, the pentapeptide was added at different concentration gradients, to achieve a final concentration of 2.5, 5, 10, 20, 40, 80, 100 and 200 μM.

## CSCC[C@H](NC(=O)[C@H](CC(N)=O)NC(=O)[C@@H](CCCNC(=N)N)NC(=O)[C@H](Cc1c[nH]c2ccccc12)NC(=O)[C@@H](N)CCCNC(=N)N)C(N)=O [pentapeptide, Arg-Trp-Arg-Asn-Met] (H-RW[dR]NM-NH2; N-terminus and C-terminus assumed)
U87MG cells [1]
  affinity for U87 cells (comparison in words): greatest affinity
MCF-7 cells
  intracellular uptake of the probe (fluorescence intensity): poor affinity and low
MDA-MB-231 cells
  intracellular uptake of the probe (fluorescence intensity): strong ability to uptake; also recorded: strong fluorescence intensity
U87MG cells [2]
  intracellular uptake of the probe (fluorescence intensity): strong ability to uptake; also recorded: strong fluorescence intensity
L02 cells
  intracellular uptake of the probe (fluorescence intensity): poor affinity and low
[3]; MCF-7 cells, MCF-7, pentapeptide 2.5-200 μM, FIG. 6, read-out: cell survival rate
  viability: ≥ 80%
[3]; U87MG cells, pentapeptide 2.5-200 μM, FIG. 6, read-out: cell survival rate
  viability: ≥ 80%
[3]; normal liver cells L02, L02, pentapeptide 2.5-200 μM, FIG. 6, read-out: cell survival rate
  viability: ≥ 80%
